The target in series [1] is T1, hIDO2 (Homo sapiens, UniProt Q6ZQW0).
T1 construct: purchased Vinci-Biochem
T1 sequence (Q6ZQW0 1-407): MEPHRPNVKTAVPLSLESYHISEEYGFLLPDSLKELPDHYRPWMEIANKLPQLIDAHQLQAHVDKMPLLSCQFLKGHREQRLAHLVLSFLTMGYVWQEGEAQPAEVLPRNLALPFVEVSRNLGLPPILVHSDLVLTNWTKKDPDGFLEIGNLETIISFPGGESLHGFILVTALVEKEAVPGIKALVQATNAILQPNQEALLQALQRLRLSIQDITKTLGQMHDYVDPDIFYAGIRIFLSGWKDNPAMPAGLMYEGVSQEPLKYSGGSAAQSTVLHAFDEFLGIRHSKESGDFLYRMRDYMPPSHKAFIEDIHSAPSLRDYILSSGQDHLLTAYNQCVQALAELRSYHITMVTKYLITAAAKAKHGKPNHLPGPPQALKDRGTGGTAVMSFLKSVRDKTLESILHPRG
Put plainly: hIDO2 inhibitory potency evaluation (fluorescence assay). The format is biochemical. Here is the method:
Additionally, to determine IDO1 selectivity, all final compounds were assayed for their inhibitory potencies towards hIDO2 and hTDO. For this purpose, two new protocols were developed based on the published fluorescence assay for hIDO1 [25]. Sodium ascorbate, methylene blue, and bovine catalase were used in the same concentrations as for hIDO1. 50 mM phosphate buffers with pH values of 7.5 and 7.0 were used for hIDO2 and hTDO, respectively, as has been already mentioned before. First, the activities of hIDO2 and hTDO were determined at four different concentrations. […] Additionally, the effect of DMSO concentration on enzyme activity was investigated. […] The optimal hIDO2 and hTDO assay concentrations of the substrate L-Trp were determined to be 4 mM and 500 μM, respectively.
Activity of the compounds on hIDO2 was determined according to the previously reported fluorescence protocol for hIDO1 [25] and reported absorbance protocols for hIDO2 [30, 36] with several modifications. Recombinant hIDO2 was purchased from Vinci-Biochem (Vinci-Biochem, Srl, Vinci, Italy), bovine catalase was purchased from Sigma-Aldrich (Sigma-Aldrich, St. Louis, MO, USA). Prior to the measurement of activity for compounds, the enzyme activity was determined and optimal assay enzyme concentration was selected. The amounts of reagents needed to perform the assay were optimized. Briefly, the reagents needed were dissolved in 50 mM potassium phosphate buffer (pH 7.5, 0.01%, v/v Tween 20), the reaction was performed in black 384-well microplates. After the addition of 1 μL of 100 mM sodium ascorbate neutralized with an equimolar amount of 1M NaOH, 1 μL of 100 μM methylene blue, 1 μL of 1 mg/mL bovine catalase, 0.5 μL of DMSO (negative control) or solution of a compound in DMSO, 5 μL of […] hIDO2 and 1.5 μL of 26.7 mM L-Trp were added and the microplate was incubated for 60 min at 37 °C. The reaction was quenched with the addition of 10 μL of 400 mM piperidine solution in MilliQ water and the formation of the examined fluorophore began following incubation at 65 °C for 20 min. The production of NFK-derived fluorophore (λEX = 400 nm, λEM = 500 nm) was measured using a microplate reader (Synergy H4; BioTek Instruments, Inc., Winooski, VT, USA) after 60 min post-incubation at room temperature. In the preliminary testing compounds were tested at 100 μM with activities determined as residual activities—RA, which were calculated to% of inhibition, presented in Table 1 and Table 2. (% of inhibition = 100% − RA). All determinations were carried out in duplicates.

Series [2] relates to Hep G2 cell line. As to the kind of experiment: Cytotoxicity, MTS cell proliferation assay. The format is cell-based. The note with it: Hep G2 cells. Here is the method: All active compounds were additionally evaluated on a cellular level, starting with the determination of cytotoxicity on Hep G2 cell line using the MTS assay (Figure 3), where inner salt of [3-(4,5-dimethylthiazol-2-yl)-5-(3-carboxymethoxyphenyl)-2-(4-sulfophenyl)-2H-tetrazolium is converted to formazan product, its quantity is directly proportional to the number of living cells. Since the majority of compounds were only partially soluble in a cell medium at concentrations above 100 μM, their effect on cell viability was measured at 50 μM, 10 μM, and 1 μM. […] Taken together, the results obtained from cellular tests reminded us of the necessity to consider the physicochemical properties of compounds even at the early stages of design.
Cytotoxicity of the compounds was determined on HepG2 cell line using the MTS cell proliferation assay (CellTiter 96 AQueous One Solution Cell Proliferation Assay, Promega, Madison, WI, USA). The cells were seeded in 96-well plates (3 × 10^4 cells/well) and maintained in Dulbecco’s Modified Eagle’s Medium, supplemented with 10% fetal bovine serum (both from Thermo Fisher Scientific, Waltham, MA, USA) and 100 µg/mL gentamicin (Sigma-Aldrich, St. Louis, MO, USA). Following overnight incubation in a humidified chamber at 37 °C and 5% CO2 cells were treated with the compounds of interest at final concentrations of 1 µM, 10 µM, 50 µM, 100 µM, 150 µM, and 200 µM. After 24h incubation under the same conditions, 100 µL of the medium from each well were collected and mixed with 10 µL of MTS solution. Following 3h incubation, the absorbance (λABS = 490 nm) was measured using a microplate reader (Synergy H4; BioTek Instruments, Inc., Winooski, VT, USA). The results are expressed as means of triplicates ± standard deviation of three independent experiments.
Background: Tetrazolium assays rely on reduction of a dye to a coloured formazan, in cell work by metabolically active cells.

Molecules are shown by their SMILES.

`O=C(Cn1cnc2onc(-c3ccc(F)cc3)c2c1=O)Nc1ccc(C(F)(F)F)cc1` [Compound 23]: the “hIDO2 inhibition (in words)” value in series [1] is “no activity”. For the same molecule, in series [2], the cytotoxicity profile entry is recorded as “satisfying cytotoxicity profile”.

(Values after PMC8001472, “Novel Selective IDO1 Inhibitors with Isoxazolo[5,4-d]pyrimidin-4(5H)-one Scaffold” (Pharmaceuticals, 2021).)
